In US10981894B2, “Melanocortin subtype-2 receptor (MC2R) antagonists and uses thereof” (Crinetics Pharmaceuticals, Inc., priority 2018, dated 2021) one finds Ki data, which are given here for 24 molecules.

In this assay the target is hMC2 receptor (Homo sapiens, UniProt Q01718). Put plainly: hMC2 membrane binding assay ([125I]ACTH (1-39) Tyr23, SPA). Set-up: scale not given here. The conditions noted are these: crude hMC2R membranes from CRE-bla-CHO-K1 cells expressing hMC2 receptor and hMRAP; [125I]ACTH (1-39) Tyr23 0.2 nM; 1.5 hours at room temperature; read-out: MC2R binding potency. Put shortly:
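Ki comes from non-linear regression of SPA scintillation counts. Displacement of 0.2 nM [125I]ACTH(1-39) Tyr23 by compound dose series (usually 0–10,000 nM final) ran 1.5 h at room temperature. Membranes came from CHO-K1 CRE-bla cells stably expressing hMC2R plus hMRAP, bead-coupled in pH 7.4 buffer with 0.2% BSA.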

SMILES strings stand for the structures.

Sequence of hMC2 receptor (Q01718 whole entry): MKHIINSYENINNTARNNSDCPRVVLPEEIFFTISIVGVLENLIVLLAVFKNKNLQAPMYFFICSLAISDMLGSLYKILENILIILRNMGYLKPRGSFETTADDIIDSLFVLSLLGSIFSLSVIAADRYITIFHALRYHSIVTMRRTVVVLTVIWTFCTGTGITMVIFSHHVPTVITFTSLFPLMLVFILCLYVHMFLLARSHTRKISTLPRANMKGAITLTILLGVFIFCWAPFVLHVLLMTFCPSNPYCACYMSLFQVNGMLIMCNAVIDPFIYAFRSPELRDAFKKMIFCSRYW
Sequence of hMC2 receptor (Q8TCY5 whole entry partner): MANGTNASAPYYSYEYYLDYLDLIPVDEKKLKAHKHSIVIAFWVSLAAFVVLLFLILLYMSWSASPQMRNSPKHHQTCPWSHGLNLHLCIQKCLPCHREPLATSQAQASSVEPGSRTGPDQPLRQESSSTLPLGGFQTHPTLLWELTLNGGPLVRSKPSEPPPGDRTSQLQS

`CCOc1ccccc1-c1ccc(N2CCN(C(=O)N3CCC[C@H]3C(F)(F)F)C[C@H]2CC)c(C(=O)N[C@H]2CCN(C)C2)n1` [Compound 1-375, 6-(2-ethoxyphenyl)-3-[(2R)-2-ethyl-4-[(2S)-2-(trifluoromethyl)pyrrolidine-1-carbonyl]piperazin-1-yl]-N-[(3S)-1-methylpyrrolidin-3-yl]pyridine-2-carboxamide]: the Ki is less than 0.01 µM.
`CCOc1ccc(C(=O)N2CCN(c3ccc(-c4cccnc4OCC)c(F)c3C(=O)NCCNC)[C@H](CC)C2)c(C(F)(F)F)n1` [Compound 1-165, 6-[(2R)-4-[6-ethoxy-2-(trifluoromethyl)pyridine-3-carbonyl]-2-ethylpiperazin-1-yl]-3-(2-ethoxypyridin-3-yl)-2-fluoro-N-[2-(methylamino)ethyl]benzamide]: the Ki was less than 0.01 µM.
The result for `CCOc1ncccc1-c1ccc(N2CCN(C(=O)N3CCC[C@H]3C(F)(F)F)C[C@H]2CC)c(C(=O)N[C@@H]2CCN(C)C2)n1` [Compound 1-372, 2′-ethoxy-5-[(2R)-2-ethyl-4-[(2S)-2-(trifluoromethyl)pyrrolidine-1-carbonyl]piperazin-1-yl]-N-[(3R)-1-methylpyrrolidin-3-yl]-[2,3′-bipyridine]-6-carboxamide] reads less than 0.01 µM; that for `CCOc1ncccc1-c1ccc(N2CCN(C(=O)N3CCc4cccc(C#N)c43)C[C@H]2CC)c(C(=O)N[C@@H]2CCNC2)n1` [Compound 1-365, 5-[(2R)-4-(7-cyano-2,3-dihydro-1H-indole-1-carbonyl)-2-ethylpiperazin-1-yl]-2′-ethoxy-N-[(3R)-pyrrolidin-3-yl]-[2,3′-bipyridine]-6-carboxamide], less than 0.01 µM.
The result for `CCOc1ncccc1-c1ccc(N2CCN(C(=O)C3(C(F)(F)F)CCCC3)C[C@H]2CC)c(C(=O)NCC2(OC)CN(C)C2)n1` [Compound 1-334, 2′-ethoxy-5-[(2R)-2-ethyl-4-[1-(trifluoromethyl)cyclopentanecarbonyl]piperazin-1-yl]-N-[(3-methoxy-1-methylazetidin-3-yl)methyl]-[2,3′-bipyridine]-6-carboxamide] reads less than 0.01 µM; that for `CCOc1ncccc1-c1ccc(N2CCN(C(=O)c3ccc(OC)nc3C(F)(F)F)C[C@H]2CC)c(C(=O)NC[C@@H]2CCN2C)n1` [Compound 1-245, 2′-ethoxy-5-[(2R)-2-ethyl-4-[6-methoxy-2-(trifluoromethyl)pyridine-3-carbonyl]piperazin-1-yl]-N-{[(2S)-1-methylazetidin-2-yl]methyl}-[2,3′-bipyridine]-6-carboxamide], less than 0.01 µM.
The result for `CCOc1ncccc1-c1ccc(N2CCN(C(=O)c3ccc(Cl)cc3C(F)(F)F)C[C@H]2CC)c(C(=O)NC[C@H]2CCN2C)n1` [Compound 1-231, 5-[(2R)-4-[4-chloro-2-(trifluoromethyl)benzoyl]-2-ethylpiperazin-1-yl]-2′-ethoxy-N-{[(2R)-1-methylazetidin-2-yl]methyl}-[2,3′-bipyridine]-6-carboxamide] reads less than 0.01 µM; that for `CCOc1ncccc1-c1ccc(N2CCN(C(=O)c3ccc(C)cc3N3CC[C@H](NC)C3)C[C@H]2CC)c(C(=O)N[C@@H]2CCNC2)c1` [Compound 1-94, 5-(2-ethoxypyridin-3-yl)-2-[(2R)-2-ethyl-4-{4-methyl-2-[(3S)-3-(methylamino)pyrrolidin-1-yl]benzoyl}piperazin-1-yl]-N-[(3R)-pyrrolidin-3-yl]benzamide], less than 0.01 µM.
Consider `CCOc1ncccc1-c1ccc(N2CCN(C(=O)C3(C(F)(F)F)CCCC3)C[C@H]2CC)c(C(=O)N[C@@H]2CN3CCC2CC3)n1` [Compound 1-400, N-[(3S)-1-azabicyclo[2.2.2]octan-3-yl]-2′-ethoxy-5-[(2R)-2-ethyl-4-[1-(trifluoromethyl)cyclopentanecarbonyl]piperazin-1-yl]-[2,3′-bipyridine]-6-carboxamide], for which the Ki was less than 0.01 µM.
Turning to `CCOc1ncccc1-c1ccc(N2CCN(C(=O)c3ccc(C)cc3C)C[C@H]2CC)c(C(=O)NCCN)c1` [Compound 1-60, N-(2-aminoethyl)-2-[(2R)-4-(2,4-dimethylbenzoyl)-2-ethylpiperazin-1-yl]-5-(2-ethoxypyridin-3-yl)benzamide], the Ki was less than 0.01 µM.
To `CCOc1ncccc1-c1ccc(N2CCN(C(=O)c3ccc(Cl)cc3C(F)(F)F)C[C@H]2CC)c(C(=O)NCC2=NCCN2)c1F` [Compound 1-188, 6-[(2R)-4-[4-chloro-2-(trifluoromethyl)benzoyl]-2-ethylpiperazin-1-yl]-N-[(4,5-dihydro-1H-imidazol-2-yl)methyl]-3-(2-ethoxypyridin-3-yl)-2-fluorobenzamide] belongs less than 0.01 µM; to `CCOc1ncccc1-c1ccc(N2CCN(C(=O)N3CCC[C@H]3C(F)(F)F)C[C@H]2CC)c(C(=O)NC[C@@H]2CCN2C)n1` [Compound 1-391, 2′-ethoxy-5-[(2R)-2-ethyl-4-[(2S)-2-(trifluoromethyl)pyrrolidine-1-carbonyl]piperazin-1-yl]-N-{[(2S)-1-methylazetidin-2-yl]methyl}-[2,3′-bipyridine]-6-carboxamide], less than 0.01 µM.
In the case of `CCOc1ccccc1-c1ccc(N2CCN(C(=O)N3CCc4cccc(C#N)c43)C[C@H]2CC)c(C(=O)NC2CN(C)C2)n1` [Compound 1-414, 3-[(2R)-4-(7-cyano-2,3-dihydro-1H-indole-1-carbonyl)-2-ethylpiperazin-1-yl]-6-(2-ethoxyphenyl)-N-(1-methylazetidin-3-yl)pyridine-2-carboxamide], the Ki is less than 0.01 µM.
The result for `CCOc1ccccc1-c1ccc(N2CCN(C(=O)N3CCCC[C@H]3C(F)(F)F)C[C@H]2CC)c(C(=O)N[C@H]2CCN(C)C2)n1` [Compound 1-435, 6-(2-ethoxyphenyl)-3-[(2R)-2-ethyl-4-[(2S)-2-(trifluoromethyl)piperidine-1-carbonyl]piperazin-1-yl]-N-[(3S)-1-methylpyrrolidin-3-yl]pyridine-2-carboxamide] reads less than 0.01 µM; that for `CCOc1ncccc1-c1ccc(N2CCN(C(=O)c3sc(Cl)cc3Cl)C[C@H]2CC)c(C(=O)N[C@@H]2CCN(C)C2)n1` [Compound 1-380, 5-[(2R)-4-(3,5-dichlorothiophene-2-carbonyl)-2-ethylpiperazin-1-yl]-2′-ethoxy-N-[(3R)-1-methylpyrrolidin-3-yl]-[2,3′-bipyridine]-6-carboxamide], less than 0.01 µM; that for `CCOc1ccccc1-c1ccc(N2CCN(C(=O)c3ccc(Cl)cc3C(F)(F)F)C[C@H]2CC)c(C(=O)NCCN(C)C)n1` [Compound 1-149, 3-[(2R)-4-[4-chloro-2-(trifluoromethyl)benzoyl]-2-ethylpiperazin-1-yl]-N-[2-(dimethylamino)ethyl]-6-(2-ethoxyphenyl)pyridine-2-carboxamide], less than 0.01 µM.
Regarding `CCOc1ncccc1-c1ccc(N2CCN(C(=O)c3ccc(C)cc3C(F)(F)F)C[C@H]2CC)c(C(=O)NCCN)c1` [Compound 1-59, N-(2-aminoethyl)-5-(2-ethoxypyridin-3-yl)-2-[(2R)-2-ethyl-4-[4-methyl-2-(trifluoromethyl)benzoyl]piperazin-1-yl]benzamide], the Ki is less than 0.01 µM.
Take `CCOc1ncccc1-c1ccc(N2CCN(C(=O)c3ccc(OC)cc3C(F)(F)F)C[C@H]2CC)c(C(=O)NCCN(C)C)c1F` [Compound 1-168, N-[2-(dimethylamino)ethyl]-3-(2-ethoxypyridin-3-yl)-6-[(2R)-2-ethyl-4-[4-methoxy-2-(trifluoromethyl)benzoyl]piperazin-1-yl]-2-fluorobenzamide]: the Ki is less than 0.01 µM.
Regarding `CCOc1ncccc1-c1ccc(N2CCN(C(=O)c3ccc(C(F)(F)F)cc3Cl)C[C@H]2CC)c(C(=O)NCCN)c1` [Compound 1-34, N-(2-aminoethyl)-2-[(2R)-4-[2-chloro-4-(trifluoromethyl)benzoyl]-2-ethylpiperazin-1-yl]-5-(2-ethoxypyridin-3-yl)benzamide], the Ki is less than 0.01 µM.
For the molecule `CCOc1ncccc1-c1ccc(N2CCN(C(=O)c3ccc(Cl)cc3C(F)(F)F)C[C@H]2CC)c(C(=O)N[C@H]2CCN(C)C2)n1` [Compound 1-215, 5-[(2R)-4-[4-chloro-2-(trifluoromethyl)benzoyl]-2-ethylpiperazin-1-yl]-2′-ethoxy-N-[(3S)-1-methylpyrrolidin-3-yl]-[2,3′-bipyridine]-6-carboxamide], the Ki was less than 0.01 µM.
The result for `CCOc1ncccc1-c1ccc(N2CCN(C(=O)c3ccc(F)cc3C(F)(F)F)C[C@H]2CC)c(C(=O)NCC2=NCCN2)c1F` [Compound 1-182, N-[(4,5-dihydro-1H-imidazol-2-yl)methyl]-3-(2-ethoxypyridin-3-yl)-6-[(2R)-2-ethyl-4-[4-fluoro-2-(trifluoromethyl)benzoyl]piperazin-1-yl]-2-fluorobenzamide] reads less than 0.01 µM; that for `CCOc1ncccc1-c1ccc(N2CCN(C(=O)c3ccc(OC)cc3C(F)(F)F)C[C@H]2CC)c(C(=O)NCCNC)c1F` [Compound 1-155, 3-(2-ethoxypyridin-3-yl)-6-[(2R)-2-ethyl-4-[4-methoxy-2-(trifluoromethyl)benzoyl]piperazin-1-yl]-2-fluoro-N-[2-(methylamino)ethyl]benzamide], less than 0.01 µM.
The result for `CCOc1ccccc1-c1ccc(N2CCN(C(=O)c3ccc(C(F)(F)F)cc3Cl)C[C@H]2CC)c(C(=O)NCCN)c1` [Compound 1-3, N-(2-aminoethyl)-4-[(2R)-4-[2-chloro-4-(trifluoromethyl)benzoyl]-2-ethylpiperazin-1-yl]-2′-ethoxy-[1,1′-biphenyl]-3-carboxamide] reads less than 0.01 µM; that for `CC[C@@H]1CN(C(=O)c2ccc(C(F)(F)F)cc2Cl)CCN1c1ccc(-c2cccc(F)c2Cl)cc1C(=O)NCCN` [Compound 1-9, N-(2-aminoethyl)-2′-chloro-4-[(2R)-4-[2-chloro-4-(trifluoromethyl)benzoyl]-2-ethylpiperazin-1-yl]-3′-fluoro-[1,1′-biphenyl]-3-carboxamide], 0.01 to 0.1 µM.
